Inhibition data for 67 compounds are collected here from paper PMC8041284, “Tunable Methacrylamides for Covalent Ligand Directed Release Chemistry” (Journal of the American Chemical Society, 2021).

Like-named read-outs stand apart in the source and are kept apart here.

The test has as its target BTK (Homo sapiens, UniProt Q06187). Nature of the test: biochemical.
Where [1] appears, read: read-out: BTK inhibition (%), 0.75 uM BTK, […] probe 3l, 15 min preincubation.

Sequence of BTK (Q06187 402-655 limits assumed): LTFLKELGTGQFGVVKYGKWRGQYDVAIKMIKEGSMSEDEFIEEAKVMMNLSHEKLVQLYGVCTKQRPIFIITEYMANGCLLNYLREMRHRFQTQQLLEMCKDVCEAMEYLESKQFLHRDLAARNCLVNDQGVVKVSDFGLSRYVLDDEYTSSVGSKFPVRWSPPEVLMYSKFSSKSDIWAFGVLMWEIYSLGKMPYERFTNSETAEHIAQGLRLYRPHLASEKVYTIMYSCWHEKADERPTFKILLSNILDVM

Regarding `O=c1cc(-c2ccc(O)c(O)c2O)oc2ccccc12` [PCM-0215990], under setting [1], the inhibition – broadly, the drop in the measured response relative to a control, in per cent – at 10 µM was 34%. Same read-out and setting: the same measure for `CC1(N)CCN(c2cnc(-c3cccc(Cl)c3Cl)c(N)n2)CC1` [PCM-0215991]: 14.7%; for `C=C1CCN([C@H](C)[C@](O)(Cn2cncn2)c2ccc(F)cc2F)CC1` [PCM-0215992]: -13.1%; for `NNc1nnc(NN)c2ccccc12` [PCM-0215993]: 9.3%. Same read-out and setting: the result for `Nc1ccc(S(=O)(=O)Nc2cnc3ccccc3n2)cc1` [PCM-0215994] reads 8.5%; that for `NCCNc1ccc(NCCN)c2c1C(=O)c1ccncc1C2=O` [PCM-0215996], 23.2%. The same measure, in the same setting: the same measure for `Cc1cccc(C)c1NC(=O)c1cc(S(N)(=O)=O)c(Cl)cc1O` [PCM-0215998]: 23.2%; for `CC(C)c1ccc(CO)cc1` [PCM-0216002]: -6.2%; for `CC(=O)OC/C=C(\C)CCC=C(C)C` [PCM-0216003]: 2.3%. As to `CO[C@@H]1[C@@H](OC)[C@H](C)[C@@](O)(CC(=O)O)O[C@H]1[C@H](C)[C@H]1O[C@@]2(CC[C@@](C)([C@H]3CC[C@@](C)([C@@H]4O[C@@H]([C@H]5O[C@](C)(O)[C@H](C)C[C@@H]5C)C[C@@H]4O[C@@H]4C[C@H](OC)[C@@H](OC)[C@H](C)O4)O3)O2)C[C@H](O)[C@H]1C` [PCM-0216004], under setting [1], the inhibition at 10 µM was -20.8%. The same measure, in the same setting: the same measure for `CC[C@H]1OC(=O)C[C@@H](OC(C)=O)[C@H](C)[C@@H](O[C@@H]2O[C@H](C)[C@@H](O[C@H]3C[C@@](C)(O)[C@@H](OC(=O)CC(C)C)[C@H](C)O3)[C@H](N(C)C)[C@H]2O)[C@@H](CC=O)C[C@@H](C)C(=O)/C=C/C(C)=C/[C@@H]1CO[C@@H]1O[C@H](C)[C@@H](O)[C@@H](OC)[C@H]1OC` [PCM-0216006]: -20.1%. On the same count and under the same terms, the result for `Cc1c(C(=O)C=Cc2ccccc2)[n+](=O)c2ccccc2n1[O-]` [PCM-0216007] reads -6.9%; that for `N#CCC1(n2cc(-c3ncnc4[nH]ccc34)cn2)CN(C2CCN(C(=O)c3ccnc(C(F)(F)F)c3F)CC2)C1` [PCM-0216009], 12.4%; that for `CC/C(=C(/c1ccc(/C=C/C(=O)O)cc1)c1ccc2[nH]ncc2c1)c1ccc(F)cc1Cl` [PCM-0216010], 81.1%.

Regarding `Cc1ccc(CN(CC(O)COc2cccc3[nH]ccc23)C(C)(C)C)cc1` (stereo not shown) [PCM-0216011], under setting [1], the inhibition at 10 µM amounted to 6.9%.

For the compound `O=C(Cn1nnc(-c2ccncc2)c1-c1ccccc1)Nc1ccc(-c2ccccc2)cn1` [PCM-0216012], the inhibition at 10 µM under setting [1] worked out at 39.4%.

For the compound `CC(=O)Nc1ccc(OC(=O)c2ccccc2OC(C)=O)cc1` [PCM-0216013], the inhibition at 10 µM under setting [1] amounted to 2.1%. On the same count and under the same terms, the same measure for `CC(=O)O[C@H]1CC(=O)OC(C)(C)[C@@H]2CC(=O)[C@]3(C)[C@H](CC[C@@]4(C)[C@H](c5ccoc5)OC(=O)[C@H]5O[C@]543)[C@@]12C` [PCM-0216014]: 13.9%; for `Cc1nc(Nc2ccc(F)cc2)nc(N2CCc3ccccc3C2C)c1C` (stereo not shown) [PCM-0216015]: 79.3%. Same read-out and setting: the result for `CN1CC(O)c2cc(N=NC(N)=O)c(O)cc21` (stereo not shown) [PCM-0216016] reads 28.3%; that for `COCC(=O)Nc1cc(Sc2ccccc2)ccc1N=C(NC(=O)OC)NC(=O)OC` [PCM-0216017], 11.6%; that for `O=C(Nc1cccc(C2=NCCN2)c1)Nc1cccc(C2=NCCN2)c1` [PCM-0216019], -17%.

With `CC(C)(CO)[C@@H](O)C(=O)NCCC(=O)NCCSSCCNC(=O)CCNC(=O)[C@H](O)C(C)(C)CO` [PCM-0216020], the inhibition at 10 µM under setting [1] was -28.9%. The same measure, in the same setting: the same measure for `CC(=O)O[C@H]1CC[C@H]2[C@@H]3CCc4cc(O)ccc4[C@H]3CC[C@]12C` [PCM-0216021]: 3.1%.

On to `CC(C)C(Br)C(=O)NC(N)=O` (stereo not shown) [PCM-0216023], for which the inhibition at 10 µM (read-out: BTK inhibition (%)) is 12.4%. In the case of `Cc1c(C(C)C)c(=O)n(-c2ccccc2)n1C` [PCM-0216024], the inhibition at 10 µM under setting [1] is -11.7%. On to `CC(C)(C)c1nc(-c2ccc(NC(=O)Nc3cccc(C(F)(F)F)c3)c3ccccc23)c2c(N)nccn12` [PCM-0216026], for which the inhibition at 10 µM under setting [1] came to 79.3%. The same measure, in the same setting: the same measure for `CC(C)OC(=O)CCC/C=C\C[C@@H]1[C@@H](/C=C/C(F)(F)COc2ccccc2)[C@H](O)C[C@@H]1O` [PCM-0216028]: -61.5%; for `O=C(O)COc1ccc(Br)cc1/C=C1\SC(=S)N(Cc2cccnc2)C1=O` [PCM-0216029]: 7.7%. In the case of `CC(C)=CCC/C(C)=C/CC/C(C)=C/CC/C=C(\C)CC/C=C(\C)CCC=C(C)C` [PCM-0216030], the inhibition at 10 µM under setting [1] is -9.7%. In the case of `CCCCCCCCC(=O)O` [PCM-0216031], under setting [1], the inhibition at 10 µM is -8.6%.

In the case of `CC(C)=CCC/C(C)=C\CO` [PCM-0216032], the inhibition at 10 µM under setting [1] amounted to 3.1%. On the same count and under the same terms, the result for `CC(C)CCC[C@@H](C)[C@H]1CC[C@H]2[C@@H]3CC[C@H]4C[C@@H](O)CC[C@]4(C)[C@H]3CC[C@]12C` [PCM-0216033] reads -9.4%; that for `Nc1ccc(/C=C/C(=O)NCc2cc3cc(-c4ccc(C(=O)N5CCC(F)(F)CC5)cc4)cc(-c4ccc(F)cc4)c3o2)cn1` [PCM-0216035], 31.7%. The same measure, in the same setting: the same measure for `CCCCCCCCCCCCN1CCCCCC1=O` [PCM-0216037]: -2.3%; for `CC[C@H](Nc1ncnc2nc[nH]c12)c1oc2ccccc2c(=O)c1-c1cccc(F)c1` [PCM-0216040]: 8.5%; for `NC(=O)c1cnc(NCCc2ccc(O)c(Cl)c2)nc1NCc1ccccc1` [PCM-0216041]: 47.1%. Same read-out and setting: the same measure for `CC1(C)Cc2c(sc(NC(=O)c3ccn[nH]3)c2C(N)=O)C(C)(C)O1` [PCM-0216042]: 1.5%; for `C[N+](C)(C)CCOP(=O)([O-])OC[C@H](O)CO` [PCM-0216043]: 1.7%. As for `CN(C)CCC=C1c2ccccc2C(C)(C)c2ccccc21` [PCM-0216044], the inhibition at 10 µM under setting [1] is -10.8%.

Turning to `COc1ccc(CCNCC(O)COc2cccc(C)c2)cc1OC` (stereo not shown) [PCM-0216046], the inhibition at 10 µM under setting [1] is -4.6%. The same measure, in the same setting: the same measure for `O=C(O)Cc1ccc2c(c1)C(=O)c1ccccc1CO2` [PCM-0216047]: -5.5%. With `Oc1ccc(-c2c(-c3ccccc3)nn3c(C(F)(F)F)cc(C(F)(F)F)nc23)cc1` [PCM-0216048], the inhibition at 10 µM (read-out: BTK inhibition (%)) was 27.8%. Regarding `Cc1ncc(NC(=O)c2cccc(C(F)(F)F)c2)cc1-c1cnc(OC2CCOCC2)c(N2CCOCC2)c1` [PCM-0216049], the inhibition at 10 µM under setting [1] is -13.1%.

On to `O=C(Oc1coc(CSc2ncccn2)cc1=O)c1ccc([N+](=O)[O-])cc1` [PCM-0216050], for which the inhibition at 10 µM under setting [1] is -3.9%. Same read-out and setting: the result for `CC(C)=CCC/C(C)=C/CC/C(C)=C/CC/C(C)=C/CC1=C(C)C(=O)c2ccccc2C1=O` [PCM-0216051] reads 2.3%; that for `CC(CCc1ccccc1)NCC(=O)c1ccc(O)c(C(N)=O)c1` (stereo not shown) [PCM-0216052], -18.5%; that for `Cc1oc2nc3c(c(NC(=O)CN4CCCC4=O)c2c1C)CCCC3` [PCM-0216053], 12.4%. On the same count and under the same terms, the result for `COc1ccc2cc(C(=O)O)ccc2c1` [PCM-0216054] reads -9.3%; that for `C[C@@]1(F)[C@H](O)[C@@H](CO)O[C@H]1n1ccc(=O)[nH]c1=O` [PCM-0216055], -20%; that for `COC(=O)N[C@H](C(=O)N1CCC[C@H]1C(=O)Nc1ccc([C@@H]2CC[C@@H](c3ccc(NC(=O)[C@@H]4CCCN4C(=O)[C@@H](NC(=O)OC)C(C)C)cc3)N2c2ccc(C(C)(C)C)cc2)cc1)C(C)C` [PCM-0216056], 18.5%. Same read-out and setting: the same measure for `Cc1cnc(C(=O)N[C@H]2CCCCC/C=C\[C@@H]3C[C@@]3(C(=O)NS(=O)(=O)C3CC3)NC(=O)[C@@H]3C[C@@H](Oc4nc5ccccc5c5ccccc45)CN3C2=O)cn1` [PCM-0216057]: 53.3%; for `CC(C)(N)C(=O)N[C@H](COCc1ccccc1)C(=O)N1CCC2(CC1)CN(S(C)(=O)=O)c1ccccc12` [PCM-0216059]: -11.7%. Regarding `COc1cc2c(c(OC)c1OC)-c1c(cc3c(c1OC)OCO3)C[C@H](C)[C@](C)(O)[C@H]2OC(=O)c1ccccc1` [PCM-0216060], under setting [1], the inhibition at 10 µM was 3.9%. The same measure, in the same setting: the result for `C[n+]1c2ccccc2nc2ccccc21` [PCM-0216061] reads 64.9%; that for `CC(=O)OCC1=C(C(=O)O)N2C(=O)[C@@H](NC(=O)CSC(=NC(C)C)NC(C)C)[C@H]2SC1` [PCM-0216063], 4.7%; that for `O=C1[C@H]2CCCC[C@H]2C(=O)N1CCCCN1CCN(c2nsc3ccccc23)CC1` [PCM-0216064], -9.3%. On to `COC(=O)c1cc(OC)c2c(c1-c1c(C(=O)OC)cc(OC)c3c1OCO3)OCO2` [PCM-0216065], for which, under setting [1], the inhibition at 10 µM turned out to be 2.8%.

Regarding `NC(=O)CN1CC(c2ccccc2)CC1=O` (stereo not shown) [PCM-0216067], the inhibition at 10 µM (read-out: BTK inhibition (%)) came to 10%. On the same count and under the same terms, the same measure for `O=C(C[S+]([O-])C(c1ccccc1)c1ccccc1)NO` (stereo not shown) [PCM-0216068]: -2.3%. Regarding `C[C@]12CC[C@H]3[C@@H](CCC4=CC(=O)C=C[C@@]43C)[C@@H]1CC[C@@H]2O` [PCM-0216069], under “read-out: BTK inhibition (%)”, the inhibition at 10 µM was -13.1%. For `CC[C@H]1OC(=O)[C@H](C)[C@@H](O[C@H]2C[C@@](C)(OC)[C@@H](O)[C@H](C)O2)[C@H](C)[C@@H](O[C@@H]2O[C@H](C)C[C@H](N(C)C)[C@H]2O)[C@](C)(O)C[C@@H](C)C(=O)[C@H](C)[C@@H](O)[C@]1(C)O` [PCM-0216070], the inhibition at 10 µM under setting [1] amounted to 10%. Still for that read-out and setting: the result for `N=c1cc(N2CCCCC2)nc(N)n1OS(=O)(=O)O` [PCM-0216071] reads -9.3%. The same measure, in the same setting: the result for `CCOC(=O)N1CCN(c2ccc(OC[C@H]3CO[C@](Cn4ccnc4)(c4ccc(Cl)cc4Cl)O3)cc2)CC1` [PCM-0216072] reads 8.5%; that for `COc1cccc(/C=N/N(C(=O)C(F)(F)F)c2ccc(C)cc2C)c1` [PCM-0216073], 13.9%.

As to `FC(F)(F)Oc1ccc(-c2ccc3nnc(C(F)(F)F)n3c2)cc1` [PCM-0216074], under setting [1], the inhibition at 10 µM is 7.7%.

`Cc1c(N[C@@H](c2nnc(-c3ccc(C#N)cc3)o2)[C@H](C)O)ccc(C#N)c1Cl` [PCM-0216075]: the inhibition at 10 µM (read-out: BTK inhibition (%)) stood at 17.8%.
